Source: patent publication US20240058243A1, “A METHOD FOR FIGHTING MICROORGANISMS USING MENTHOL DERIVATIVES” (priority 2020, published 2024)
Values after ≈ are worked out from the molar mass of the structure shown. Where two headings read alike, the source gives them in different places. Each block holds one compound with its values, some of them ahead of it.

How the values were obtained:
Fusobacterium nucleatum = experiment: Minimum inhibitory concentration, oral cavity strains; type: cell-based; details: read-out: MIC Fusobacterium nucleatum
Excerpt: (§1) The differential inhibition of microorganisms was also investigated with strains that typically are found in the oral cavity and that are related to oral diseases like gingivitis or caries. The cooling compounds show a better efficacy against Streptococcus mutans, Streptococcus salivarius, Porphyromonas gingivalis and Fusobacterium nucleatum in comparison to Escherichia coli.

Streptococcus mutans = experiment: as above; type: cell-based; details: read-out: MIC Streptococcus mutans
Excerpt: as §1

Porphyromonas gingivalis = experiment: as above; type: cell-based; details: read-out: MIC Porphyromonas gingivalis
Excerpt: as §1

Streptococcus salivarius = experiment: as above; type: cell-based; details: Example 2 table (oral care)
Excerpt: as §1

Anaerococcus octavius = experiment: Minimum inhibitory concentration, pure culture; type: cell-based
Excerpt: (§2) Antimicrobial activity was also investigated with pure cultures for three different cooling compounds. The results of Triclosan, a well-known antimicrobial, are shown for comparison. (Table 7):
It should be emphasized that Anaerococcus octavius represents the category of anaerobic odour causing bacteria. As a matter of fact, it is very hard to find antimicrobial materials which are active against these germs.

Staphylococcus hominis = experiment: Minimum inhibitory concentration, pure culture; type: cell-based
Excerpt: (§3) Antimicrobial activity was also investigated with pure cultures for three different cooling compounds. The results of Triclosan, a well-known antimicrobial, are shown for comparison.

Corynebacterium xerosis = experiment: Minimum inhibitory concentration, pure culture; type: cell-based
Excerpt: as §3

[1] = system: Staphylococcus epidermidis; experiment: Minimum inhibitory concentration, pure culture; type: cell-based
Excerpt: as §3

Candida albicans = experiment: Minimum inhibitory concentration, pure culture; type: cell-based
Excerpt: as §3

Staphylococcus aureus = experiment: Minimum inhibitory concentration, pure culture; type: cell-based
Excerpt: as §3

Escherichia coli = experiment: Minimum inhibitory concentration, pure culture; type: cell-based; details: for MIC: Escherichia coli, read-out: MIC Escherichia coli; for MIC Escherichia coli: Example 2 table (oral care)
Excerpt: as §2, §1

[2] = system: conversion of non-odorous precursor molecules in human axillary sweat; experiment: Axillary microbiome ex vivo model: HPLC-MS of non-odourous precursors and odorous products; type: cell-based
Excerpt: (§4) The formation of sweat odour was investigated in an axillary microbiome ex vivo model that is based on human axillary sweat. […] This includes accumulation of volatile organic acids related to sweat odour (measured with GC-MS) and conversion of non-odorous precursor molecules to the respective odorous product (measured with HPLC) going along with the development of the typical sweat odour (assessed by a sensory panel).

[3] = system: volatile organic acids in human axillary sweat; experiment: Axillary microbiome ex vivo model: volatile organic acids (GC-MS); type: cell-based
Excerpt: as §4

[4] = system: axillary microbiome in human axillary sweat; experiment: Axillary microbiome ex vivo model: microbiome composition; type: cell-based
Excerpt: as §4
(§5) The resulting sweat odour is the result of microbial activity. Those microorganisms that can metabolize the nutrients contained in the sweat can also increase their cell number. Untreated sweat starts with a cell number of about 10^7 cells/ml. These numbers increase by a magnitude during incubation, both for aerobic as well as anaerobic cell count. […] Anaerobic genera like Anaerococcus, Peptoniphilus, and Finegoldia are part of the natural axillary flora (Zeeuwen et al (2012), Troccaz et al (2015)). As some of their assigned species are known to be odour causing (Fuji 2014), the limitation of their increase is of high importance for the management of the typical sweat odor. […] Table 2 refers to change in microbiome composition.

[5] = system: axillary microbiome in human axillary sweat; experiment: Axillary microbiome ex vivo model: aerobic and anaerobic cell counts; type: cell-based
Excerpt: as §4, §5

[6] = system: sweat odour of human axillary sweat; experiment: Axillary microbiome ex vivo model: sweat odour rating by sensory panel
Excerpt: as §4

[7] = Table 7, read-out: MIC Anaerococcus octavius
[8] = Table 7, read-out: MIC Staphylococcus hominis
[9] = Table 7, read-out: MIC Corynebacterium xerosis
[10] = Table 7, read-out: MIC Staphylococcus epidermidis
[11] = Table 7, read-out: MIC Candida albicans
[12] = Table 7, read-out: MIC Staphylococcus aureus
[13] = 5,000 ppm, after 48 h incubation of fresh sweat

MIC (Fusobacterium nucleatum; Example 2 table (oral care)): 500 µg/mL
MIC (Streptococcus mutans; Example 2 table (oral care)): 500 µg/mL
MIC (Porphyromonas gingivalis; Example 2 table (oral care)): 250 µg/mL
MIC (Streptococcus salivarius): 500 µg/mL
MIC (Anaerococcus octavius; [7]): 2.5 µg/mL
MIC (Staphylococcus hominis; [8]): 500 µg/mL
MIC (Corynebacterium xerosis; [9]): 500 µg/mL
MIC [1, 10]: 500 µg/mL
MIC (Candida albicans; [11]): > 1 µg/mL
MIC (Staphylococcus aureus; [12]): 1 µg/mL
MIC (Escherichia coli; Table 7): > 1 µg/mL
MIC Escherichia coli (Escherichia coli): >1.000 ppm
SMILES: CC(C)[C@@H]1CC[C@@H](C)CC12OCC(CO)O2 (mixture of isomers) [Frescolat ® MGA, Menthon Glyceryl Acetal]

MIC (Fusobacterium nucleatum; Example 2 table (oral care)): 16 µg/mL (≈ 65.5 µM)
MIC (Streptococcus mutans; Example 2 table (oral care)): 250 µg/mL (≈ 1020 µM)
MIC (Porphyromonas gingivalis; Example 2 table (oral care)): 125 µg/mL (≈ 512 µM)
MIC (Streptococcus salivarius): 500 µg/mL (≈ 2050 µM)
MIC (Anaerococcus octavius; [7]): 1 µg/mL (≈ 4.09 µM)
MIC (Staphylococcus hominis; [8]): 500 µg/mL (≈ 2050 µM)
MIC (Corynebacterium xerosis; [9]): 500 µg/mL (≈ 2050 µM)
MIC (Candida albicans; [11]): > 1 µg/mL
MIC (Staphylococcus aureus; [12]): 500 µg/mL (≈ 2050 µM)
MIC (Escherichia coli; Table 7): > 1 µg/mL
MIC Escherichia coli (Escherichia coli): >1.000 ppm
SMILES: CC(C)[C@@H]1CC[C@@H](C)C[C@H]1OC(=O)OCCO [Frescolat ® MGC, Menthol Ethylene Glycol Carbonate]

MIC (Fusobacterium nucleatum; Example 2 table (oral care)): 250 µg/mL
MIC (Streptococcus mutans; Example 2 table (oral care)): 125 µg/mL
MIC (Porphyromonas gingivalis; Example 2 table (oral care)): 125 µg/mL
MIC (Streptococcus salivarius): 500 µg/mL
MIC (Anaerococcus octavius; [7]): 500 µg/mL
MIC (Staphylococcus hominis; [8]): 250 µg/mL
MIC (Corynebacterium xerosis; [9]): 250 µg/mL
MIC [1, 10]: 500 µg/mL
MIC (Candida albicans; [11]): 1 µg/mL
MIC (Staphylococcus aureus; [12]): 250 µg/mL
MIC (Escherichia coli; Table 7): > 5 µg/mL
MIC Escherichia coli (Escherichia coli): >5.000 ppm
SMILES: CC(O)C(=O)O[C@@H]1C[C@H](C)CC[C@H]1C(C)C (stereo in doubt) [Frescolat ® ML, Menthyl Lactate]
Formation of odorous products ([2]; 5000 ppm added to fresh sweat): drastically reduced formation
Concentration of non-odourous pre-cursour N-α-3-hydroxy-3-methylhexanoyl-L-glutamine (HMHA-Gln) ([2]; 5000 ppm, 48 h): 102.24 ppm
Concentration of non-odourous pre-cursour N-α-[(2E)-3-methyl-2-hexenoyl]-L-glutamine (3M2H-Gln) ([2]; 5000 ppm, 48 h): 10.42 ppm
Concentration of odorous products, line N-α-3-hydroxy-3-methylhexanoyl-L-glutamine (HMHA-Gln) ([2]; 5000 ppm, 48 h): 0.43 ppm
Concentration of odorous products, line N-α-[(2E)-3-methyl-2-hexenoyl]-L-glutamine (3M2H-Gln) ([2]; 5000 ppm, 48 h): 1.69 ppm
Formation of volatile organic acids ([3]; 5000 ppm added to fresh sweat): drastically reduced formation
Concentration of 2-Methylbutyric Acid ([3]; 5000 ppm, 48 h): 0 ppm
Concentration of Acetic Acid ([3]; 5000 ppm, 48 h): 11.1 ppm
Concentration of Butyric Acid ([3]; 5000 ppm, 48 h): 0.3 ppm
Concentration of Capric Acid ([3]; 5000 ppm, 48 h): 1.3 ppm
Concentration of Capronic Acid ([3]; 5000 ppm, 48 h): 0.6 ppm
Concentration of Caprylic Acid ([3]; 5000 ppm, 48 h): 1.5 ppm
Concentration of Lauric Acid ([3]; 5000 ppm, 48 h): 1.7 ppm
Concentration of Propanoic Acid ([3]; 5000 ppm, 48 h): 2.2 ppm
Concentration of Valeric Acid ([3]; 5000 ppm, 48 h): 0 ppm
Abundance of anaerobic odour causing genera Anaerococcus, Finegoldia and Moraxella ([4]; 5000 ppm added to fresh sweat): inhibited in their abundance increase
Relative abundance of Raoultella, Corynebacterium and Staphylococcus versus untreated ([4]; 5000 ppm added to fresh sweat): same relative abundance as in the untreated sample
Relative abundance Anaerococcus ([4]; 5,000 ppm, after 48 h): 1.6%
Relative abundance Below 0.1% ([4]; 5,000 ppm, after 48 h): 1.1%
Relative abundance Citrobacter ([4]; 5,000 ppm, after 48 h): 11.7%
Relative abundance Corynebacterium ([4]; 5,000 ppm, after 48 h): 2.8%
Relative abundance Enterobacter ([4]; 5,000 ppm, after 48 h): 32.6%
Relative abundance Finegoldia ([4]; 5,000 ppm, after 48 h): 0.2%
Relative abundance Kluyvera ([4]; 5,000 ppm, after 48 h): 0.9%
Relative abundance Moraxella ([4]; 5,000 ppm, after 48 h): 0.0%
Relative abundance Propionibacterium ([4]; 5,000 ppm, after 48 h): 7.6%
Relative abundance Raoultella ([4]; 5,000 ppm, after 48 h): 39.1%
Relative abundance Staphylococcus ([4]; 5,000 ppm, after 48 h): 2.2%
Relative abundance Streptococcus ([4]; 5,000 ppm, after 48 h): 0.1%
Relative abundance Undefined ([4]; 5,000 ppm, after 48 h): 0.0%
Cell number development compared to untreated ([5]; 5000 ppm added to fresh sweat): slight reduction compared to untreated
Aerobic cell count [5, 13]: 6.85E+07 cells/ml
Anaerobic cell count [5, 13]: 1.08E+07 cells/ml
Odour development in sensory analysis in comparison to untreated ([6]; 5000 ppm added to fresh sweat): clear reduction of odour development
Odor rating (smell intensity), mean ([6]; 5000 ppm, 48 h, mean of 8 panelists): 2.4

SMILES: Oc1cc(Cl)ccc1Oc1ccc(Cl)cc1Cl [Triclosan, reference compound]
MIC (Fusobacterium nucleatum): 8 µg/mL (≈ 27.6 µM)
MIC (Streptococcus mutans): 8 µg/mL (≈ 27.6 µM)
MIC (Porphyromonas gingivalis): 1 µg/mL (≈ 3.45 µM)
MIC (Anaerococcus octavius; read-out: MIC Anaerococcus octavius): > 500 µg/mL
MIC (Staphylococcus hominis; read-out: MIC Staphylococcus hominis): 4 µg/mL (≈ 13.8 µM)
MIC (Corynebacterium xerosis; read-out: MIC Corynebacterium xerosis): 8 µg/mL (≈ 27.6 µM)
MIC ([1]; read-out: MIC Staphylococcus epidermidis): 4 µg/mL (≈ 13.8 µM)
MIC (Candida albicans; read-out: MIC Candida albicans): 16 µg/mL (≈ 55.3 µM)
MIC (Staphylococcus aureus; read-out: MIC Staphylococcus aureus): 2 µg/mL (≈ 6.91 µM)
MIC (Escherichia coli): > 1 µg/mL
MIC Escherichia coli (Escherichia coli): >1 ppm
